“Also recorded” adds a separate entry of the source.
Experiments:
P-glycoprotein = target: T1, P-glycoprotein (Homo sapiens, UniProt P08183); assay: P-glycoprotein substrate test in MDCK-mdr1 cell line; assay type: in vitro ADME; conditions: our unpublished data
T1 construct: expressed in transfected cells; host or cells: MDCK-mdr1 (canine kidney cells carrying an mdr1 transgene; transfection is inferred from the cell line name)

[1] = Stability of α-MG in various buffer solutions; assay type: physicochemical; conditions: pHs ranging from 2 to 13; unpublished data
[2] = Tissue distribution of α-MG (tissue-to-plasma ratios) after intravenous and oral administration; assay type: in vivo, mice
Description: The surgical procedures and administration of α-MG were conducted according to a previously reported method, [12], [31]. At 30 and 180 min after intravenous and oral administration of α-MG at doses of 10 mg/kg, as much blood as possible was collected via the carotid artery and each mouse was then sacrificed by cervical dislocation. Each liver, spleen, stomach, small intestine, large intestine, mesentery, kidney, fat, muscle, heart, lung, and brain was excised, weighted and homogenized with a volume of distilled water at 4 times the each organ. After centrifugation for 10 min, the supernatant was collected and all samples stored at –80°C until required.

[3] = Metabolism of α-MG in in vitro S9 fraction of liver; assay type: in vitro ADME, mice; conditions: 30 min incubation, NADPH and UDPGA
Excerpt: The procedures for using S9 fractions from various tissues were similar those already reported. Each liver, stomach, small intestine, large intestine, lung, heart, kidney, fat, mesentery, muscle, and brain was excised after cervical dislocation (n = 6). Each tissue sample was rinsed with cold 0.9% NaCl-injectable solution, blotted dry with tissue paper and weighed. Then each tissue was homogenized with a volume of 0.25 M sucrose at 4 times of each tissue. Metabolic activity was initiated by adding a 100 μL aliquot of the 9000 × g supernatant fraction (S9) of each tissue to a 135 μL of Tris-buffer (pH 7.4), 5 μL of 0.9% NaCl-injectable solution with 1 or 20 μg/mL α-MG as a final concentration, 5 μL (1 mM) of NADPH and 5 μL (3.3 mM) of UDPGA. A 250 μL aliquot of acetonitrile (containing 1 μg/mL of the IS) was added after a 30 min incubation in a thermomixer (37°C and 500 opm) to terminate the enzyme activity. The amount of remaining α-MG in the S9 fraction of each tissue was determined using the HPLC-MS/MS analytical method.

[4] = Tentative identification of metabolites from α-MG by UPLC-MS/MS; assay type: in vivo; conditions: mice after intravenous and oral α-MG; S9 fractions after 30-min incubation
Excerpt: Probable metabolites of α-MG were identified using the simultaneous full scan MS, MRM and MS/MS modes in a Waters UPLC-XEVO TQ system (Waters Corporation, Milford, USA) to confirm the structures of any metabolites. […] Structural elucidation of the metabolites was based on the fragmentation patterns of parent ion from the MS/MS mode at a collision energy of 10 to 20 eV generating daughter ions. The mass transitions for α-MG was m/z 411.21 → 354.85 (collision energy of 20 eV and collision cell exit potential of 25 eV, respectively). The unknown masses were further analyzed in MS/MS (daughter scan) mode with the electrospray ionization interface used to generate positive and negative ions at a capillary voltage of 3.0 kV, source temperature of 350°C and desolvation gas temperature of 650°C. The MRM methods for identification of possible metabolites generated by phase I and/or II reactions were included.
These compounds were separated on a reversed-phase C18 column (XSELECT CSH, 2.1 mm × 100 mm i.d., 1.7-μm particle size; Waters, Ireland) with a flow rate of 0.35 mL/min. The mobile phase composition was started at 95: 5 (v/v) of distilled water containing 0.1% formic acid (A) and acetonitrile (B) and gradually changed to 35: 65 (v/v) for 30 min, and then switched back to 95: 5 (v/v) for 40 min.

T1 sequence (P08183 whole entry): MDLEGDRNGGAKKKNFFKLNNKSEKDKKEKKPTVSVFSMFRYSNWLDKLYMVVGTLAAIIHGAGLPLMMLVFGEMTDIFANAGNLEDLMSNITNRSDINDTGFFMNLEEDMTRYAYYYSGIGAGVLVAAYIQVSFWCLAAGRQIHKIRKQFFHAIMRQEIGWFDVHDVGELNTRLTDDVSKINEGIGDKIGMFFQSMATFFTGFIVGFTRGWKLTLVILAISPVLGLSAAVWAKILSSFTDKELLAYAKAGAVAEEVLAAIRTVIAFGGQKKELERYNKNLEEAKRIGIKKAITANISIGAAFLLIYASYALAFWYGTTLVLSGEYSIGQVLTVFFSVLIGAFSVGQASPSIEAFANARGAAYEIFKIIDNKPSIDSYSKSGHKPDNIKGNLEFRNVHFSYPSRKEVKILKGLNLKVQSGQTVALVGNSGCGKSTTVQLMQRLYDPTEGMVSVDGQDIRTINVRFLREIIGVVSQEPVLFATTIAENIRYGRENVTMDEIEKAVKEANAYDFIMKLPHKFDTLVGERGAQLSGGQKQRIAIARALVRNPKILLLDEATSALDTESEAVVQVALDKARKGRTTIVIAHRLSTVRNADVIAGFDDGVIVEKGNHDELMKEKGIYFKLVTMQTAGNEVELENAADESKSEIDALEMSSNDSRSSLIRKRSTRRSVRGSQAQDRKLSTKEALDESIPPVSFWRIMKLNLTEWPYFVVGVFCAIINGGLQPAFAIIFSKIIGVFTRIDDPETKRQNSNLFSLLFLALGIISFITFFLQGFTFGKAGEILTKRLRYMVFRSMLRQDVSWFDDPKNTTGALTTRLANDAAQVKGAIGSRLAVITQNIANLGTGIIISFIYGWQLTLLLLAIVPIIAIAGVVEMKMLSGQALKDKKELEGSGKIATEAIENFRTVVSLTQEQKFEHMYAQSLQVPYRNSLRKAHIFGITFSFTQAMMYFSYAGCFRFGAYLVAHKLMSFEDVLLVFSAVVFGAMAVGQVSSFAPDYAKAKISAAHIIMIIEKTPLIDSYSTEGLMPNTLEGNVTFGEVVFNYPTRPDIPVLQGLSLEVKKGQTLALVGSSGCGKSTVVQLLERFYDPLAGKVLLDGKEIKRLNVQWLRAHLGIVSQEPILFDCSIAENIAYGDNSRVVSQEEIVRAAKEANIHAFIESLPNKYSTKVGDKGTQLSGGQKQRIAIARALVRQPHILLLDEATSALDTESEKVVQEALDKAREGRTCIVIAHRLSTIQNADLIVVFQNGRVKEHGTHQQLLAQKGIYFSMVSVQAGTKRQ

SMILES: COc1c(O)cc2oc3cc(O)c(CC=C(C)C)c(O)c3c(=O)c2c1CC=C(C)C [α-MG, α-Mangostin]
- substrate of P-glycoprotein (P-glycoprotein): substrate of P-glycoprotein
- stability in various buffer solutions [1]: stable
- tissue-to-plasma (T/P) ratio ([2]; intravenous 10 mg/kg, kidney, at 30 min): greater than unity
- tissue-to-plasma (T/P) ratio ([2]; intravenous 10 mg/kg, large intestine and fat, at 180 min): greater than unity
- tissue-to-plasma (T/P) ratio ([2]; intravenous 10 mg/kg, liver, small intestine and lung, at 30 and 180 min): greater than unity
- tissue-to-plasma (T/P) ratio ([2]; oral 10 mg/kg, all tissues studied except the brain, at 30 and 180 min, 10 mg/kg): greater than unity; also recorded: above unity
- disappearance of spiked α-MG ([3]; liver S9, 1 μg/mL): 57.3%
- disappearance of spiked α-MG ([3]; liver S9, 20 μg/mL): 51.4%
- Source (samples in which detected) [4]: plasma, urine, feces, liver, small intestine, S9 fractions of liver and small intestine
